“And” between values parts separate entries of the source, which are not always exact repeats. Equal entries are not always repeated.
Tests used:
[1] = test system: marrow progenitor cells (GEMM, GM); experiment: Marrow toxicity by marrow progenitor colony formation assay; assay type: in vivo, CB57/BL6 mice
Method: Toxicity studies were done in nontumor bearing CB-17 SCID mice (Taconic Biosciences). […] Each arm had n = 10 mice (5 male, 5 female mice). […] The vehicle group received an equal volume of saline (placebo). Weights were obtained twice weekly and mice were monitored daily for signs of toxicity. […] On target hematological and marrow toxicity which was evaluated by complete blood counts and marrow colony formation assay. An additional study was performed under identical conditions to evaluate additive dose effects. […] Each treatment group was composed of equal numbers of male and female mice to rule out gender-specific effects (n = 4 per treatment group per time point). Mice were followed for signs of acute toxicity for 2 weeks and 4 weeks before euthanasia. An additional group (n = 4) treated at 36 MBq/kg was euthanized after 72 h to assess early signs of toxicity by colony formation assays. This time course was chosen to best capture the nadir of bone marrow suppression. After euthanasia, blood was collected and femurs were dissected and processed for histopathology and bone marrow evaluation.
After euthanasia, mouse hind limbs were dissected as previously described for bone and marrow isolation. The other hind limb was processed for bone marrow via centrifugation. Bone marrow pellets were resuspended in 1 X RBC Lysis Buffer (BioLegend, San Diego, CA) and rocked on a tilt-table for 5 minutes. Bone marrow cell pellet was isolated by centrifugation at 13,000 RPM on a tabletop centrifuge for 1 minute. Cells were resuspended in IMDM with 2% FBS (Gibco, ThermoFisher Scientific, Grand Island, New York) and counted on a Countess II Automated Cell Counter (ThermoFisher Scientific, Grand Island, NY).
Colony formation assays were performed per manufacturer’s protocol. In brief, 1.8 ×10^5 bone marrow cells suspended in 300 µL IMDM with 2% FBS were combined with 3 mL of Mouse Methylcellulose Complete Media (R&D Systems Inc, Minneapolis, MN). Gel mixture was syringe-pipetted in duplicate to lids of 6 cm culture dishes and housed with a 6 cm sterile water dish within a 25 cm culture dish. Cultures were incubated at 37 °C for 8 days prior to analysis on a microscope. Colonies were counted by one individual per manufacturer’s recommended protocol. Of note, at least 30 cells were required to call a colony positive.

COG-N-453x = experiment: Pre-clinical efficacy study, COG-N-453x PDX; assay type: in vivo; conditions: single mouse
Method: (§1) Patient demographics and genetic characteristics are listed in (Supplementary Tables 1, 2)[17]. The maximum tolerated dose (MTD) was determined to be 36 MBq/kg administered by intra-peritoneal injection twice weekly for a total of 4 dose fractions and this fractionated regimen was used in all studies (Supplementary Fig. 1)[18],[19]. […] Nine of 11 PDX models were MYCN amplified (Fig. 1b), which is a hallmark of high-risk neuroblastoma. Tumor response was measured as the maximum percent decrease in tumor volume after treatment and event-free survival (EFS) was measured by the area over the curve method with tumor events pre-defined by tumor growth exceeding 2 cm[3],[18].
(§2) The use of 2 mice per arm was based on the previously reported statistical analysis. PDX tumors were implanted into the right flank of 5 to 6-weeks old female mice weighing about 20–25 grams. […] Two additional dose levels of 12, and 24 MBq/kg/fraction were assessed in a subset of models and were administered as stated above. In two models treated at the 24 MBq/kg/fraction dose level we re-challenged tumor response at the time of tumor progression with an additional 4 dose fractions at 24 MBq/kg/fraction given twice weekly. Doses were prepared in 500 µL total volume. An equal volume of saline was used for the vehicle group. Tumors were measured using a digital caliper at the initiation of the study and two times per week during the treatment period. Tumor volumes were calculated as volume = ([…]∗0.5236)/1000. Weights were obtained twice weekly and mice were monitored daily for signs of toxicity. […] Tumor response was assessed by best response defined as greatest reduction in tumor volume following the last dose and is presented as percent change in tumor volume. Event-free survival was determined by area over the curve method that calculates the time to tumor event, which was defined as tumors reaching or exceeding a size ≥ 2 cm^3.
(§3) Animal studies were performed in female mice due to the lack of sex-related differences for [^211At]PTT tolerability from initial dose response studies performed in female and male mice. Female mice were chosen due to their underlying behavior towards other study subjects that reduced nonstudy-related causes for decreased wellness. Pre-clinical efficacy studies were performed through “single mouse testing” to more closely recapitulate a clinical trial. […] Number size for treatment groups was determined by model tumor growth reproducibility, which was previously shown to have less than 5% normal variation with at least two animals. Statistical tests for tumor response and event-free survival (EFS) were performed as a grouped analysis that included all tumor models treated at each respective dose level (n = 2 per model per dose level). Statistical differences between treatment groups for tumor response was performed by paired-model T-test that compared reduction in tumor volume for the 36 MBq/kg dose level vs. 24 MBq/kg or 12 MBq/kg. Event free survival was measured by area over the curve method to quantify time to event, which was set as tumor growth exceeding 2 cm[3],[19]. Differences in EFS were tested across all treated models for each respective dose level, and against untreated controls, by paired-model ANOVA analysis. Associations of drug target expression and response were performed by linear regression analysis of EFS and PARP1 mRNA expression. Genetic signatures were visually presented as a function of EFS and no statistical tests were applied. Blood and marrow toxicity studies were performed with n = 5 sample sizes and powered to detect >20% differences between untreated controls and treated animals. Results were tested for significance by one-way ANOVA comparison from untreated controls. Marrow colony formation assays were performed in replicates of 2 for each mouse subject, dependent on marrow isolation, and all replicates are included in final analyses. […]

[2] = test system: high-risk neuroblastoma patient-derived xenograft (PDX) mouse models; experiment: Pre-clinical efficacy study in 11 neuroblastoma PDX mouse models (grouped analysis); assay type: in vivo
Method: as §1, §2, §3

PARP1 = experiment: Clinical PET imaging / first-in-human dosimetry of [^18F]FTT and extrapolation to [^211At]PTT; assay type: in vivo
[3] = 4 wk after 2 dose fractions at 36 MBq/kg/fraction
[4] = 36 MBq/kg x 4 dose fractions, 72 hours post-treatment, replicate
[5] = 48 MBq/kg x 4 dose fractions, 72 hours post-treatment, replicate
[6] = 60 MBq/kg x 4 dose fractions, 72 hours post-treatment, replicate
[7] = dose escalation 36, 48, 60 MBq/kg x 4 fractions
[8] = 12 MBq/kg/fraction x 4 fractions
[9] = 24 MBq/kg/fraction x 4 fractions
[10] = 36 MBq/kg/fraction x 4 fractions

O=C1NCCn2c(-c3ccc([211At])cc3)nc3cccc1c32 [[^211At]PTT, Astatine-211-parthanatine]
time by which marrow recovery stabilized, GEMM and GM progenitor cells ([1]; 3 dose fractions at 36 MBq/kg): ≤ 2 weeks
GEMM (CFU) [1, 3]: 4 CFU and 7.5 CFU and 6 CFU and 5 CFU
GM (CFU) [1, 3]: 22 CFU and 36.5 CFU and 33 CFU and 24 CFU and 38 CFU
GEMM (CFU) [1, 4]: 7 CFU and 3 CFU and 2 CFU and 8 CFU and 14 CFU and 5 CFU and 9 CFU
GM (CFU) [1, 4]: 15 CFU and 10 CFU and 23 CFU and 13 CFU and 9 CFU
GEMM (CFU) [1, 5]: 12 CFU and 5 CFU and 7 CFU and 3 CFU and 6 CFU
GM (CFU) [1, 5]: 1 CFU and 5 CFU and 2 CFU and 12 CFU and 6 CFU and 7 CFU
GEMM (CFU) [1, 6]: 2 CFU and 3 CFU and 8 CFU and 7 CFU and 6 CFU and 4 CFU
GM (CFU) [1, 6]: 5 CFU and 8 CFU and 7 CFU and 4 CFU
GEMM (CFU) ([1]; 72 hrs after 2 dose fractions at 36 MBq/kg/fraction): 4 CFU and 6 CFU and 3 CFU and 5 CFU and 4.5 CFU
colony formation of early marrow progenitor cells (GEMM) [1, 7]: reduced only at the highest dose level evaluated (60 MBq/kg)
colony formation of granulocyte and megakaryocyte progenitors [1, 7]: reduction in colony formation at all dose levels evaluated
time of full recovery of colony formation ([1]; post treatment, 3 dose fractions at 36 MBq/kg): 4 weeks
EFS by AOC method (COG-N-453x; [8]): 19.5598 days and 22.4877 days
Tumor response (% growth from study initiation at ~ 200 mm3) (COG-N-453x; [8]): 25% and -63.158%
EFS by AOC method (COG-N-453x; [9]): 43.7943 days and 33.4459 days
Tumor response (% growth from study initiation at ~ 200 mm3) (COG-N-453x; [9]): -100% and -90.323%
EFS by AOC method (COG-N-453x; [10]): 48.6067 days and 52.9347 days
Tumor response (% growth from study initiation at ~ 200 mm3) (COG-N-453x; [10]): -100%
median EFS ([2]; 12 MBq/kg dose level): 23 days
mouse tumors showing progressing disease after treatment ([2]; 12 MBq/kg dose level (COG-N-415x n = 1, COG-N-453x n = 1)): two
average decrease in tumor volume ([2]; 12 MBq/kg, n = 8, 4 PDX models): 27.15 ± 42.2%
median EFS ([2]; 24 MBq/kg dose level): 46 days
reduction in tumor volume after therapy re-challenge ([2]; 24 MBq/kg re-challenge, COG-N-426x-Felix and NB-EBC1x, n = 2): 100%
average decrease in tumor volume ([2]; 24 MBq/kg, n = 14, 7 PDX models): 92.6 ± 8.1%
average decrease in tumor volume ([2]; 36 MBq/kg (MTD), n = 22, 11 PDX models): 98.4 ± 3.3%
median event free survival (EFS) ([2]; 36 MBq/kg/fraction x4 (MTD)): 74 days
mice with no measurable tumor/disease at end of study ([2]; MTD, 6/20 mice, >95 days (b1), >90 days): 30%
complete tumor response, share of tumors ([2]; MTD, 18 of 22 tumors): 81.8%
extrapolated equivalent dose to the kidneys (PARP1; RBE of 5 for alpha radiation): approximately 2 mSv/MBq
estimated SUVmax in neuroblastoma tumors (PARP1; estimate from [^18F]FTT clinical data and pre-clinical uptake): approximately 10
rough estimate of absorbed tumor dose (PARP1; patient, biological half-life 5.1 hr and SUVmax of 10): 0.17 Gy per MBq/kg
estimated renal absorbed dose (PARP1; using human biodistribution results of [^18F]FTT in adults): 0.25–0.41 mGy/MBq

From paper PMC9671962 (Communications Biology, 2022)
